Laboratory results from patent US10716791B2, “Inhibitors of peptidyl arginine deiminase (PAD) enzymes and uses thereof” (UNIVERSITY HEALTH NETWORK, priority 2015, dated 2020).
Where two headings read alike, the source gives them in different places.

How the values were obtained:
CHO cells = assay: CHO cell toxicity assay; assay type: cell-based; conditions: Cricetulus griseus
PAD2 = PAD2 (Mus musculus (Mouse), UniProt Q08642); assay: Inhibition of PAD activity (Example 53), PAD2; conditions: for remaining activity at 100 µM / remaining activity at 1000 µM: read-out: Remaining activity of PAD2
Sequence of PAD2 (Q08642 whole entry): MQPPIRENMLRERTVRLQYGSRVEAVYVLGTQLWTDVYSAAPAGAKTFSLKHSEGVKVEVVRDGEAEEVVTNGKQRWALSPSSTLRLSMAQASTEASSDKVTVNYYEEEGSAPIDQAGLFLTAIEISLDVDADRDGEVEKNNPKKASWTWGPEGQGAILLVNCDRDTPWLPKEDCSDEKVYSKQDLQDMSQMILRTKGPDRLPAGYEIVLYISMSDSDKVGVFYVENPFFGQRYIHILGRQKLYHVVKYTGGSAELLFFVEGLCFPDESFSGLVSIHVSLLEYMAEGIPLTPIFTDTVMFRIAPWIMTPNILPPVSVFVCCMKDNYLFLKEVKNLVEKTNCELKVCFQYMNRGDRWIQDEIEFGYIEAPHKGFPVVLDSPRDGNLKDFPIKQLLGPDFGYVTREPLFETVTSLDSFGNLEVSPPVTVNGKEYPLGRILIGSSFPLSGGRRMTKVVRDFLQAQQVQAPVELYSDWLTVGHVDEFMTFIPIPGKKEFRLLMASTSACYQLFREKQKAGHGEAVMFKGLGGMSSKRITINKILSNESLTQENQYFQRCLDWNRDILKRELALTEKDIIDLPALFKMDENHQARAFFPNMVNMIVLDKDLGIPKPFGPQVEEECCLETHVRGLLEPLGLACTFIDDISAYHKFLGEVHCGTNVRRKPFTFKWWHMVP
Procedure: (§1) Materials: PAD1, PAD2, PAD3 and PAD4 were purchased from commercial sources. Assay buffer: 50 mM Tris pH 7.5, 100 mM NaCl, 10 mM CaCl2, 5 mM DTT.
(§2) The inhibitor (12.5 μL of stock) was mixed with appropriate amount of substrate (BAEE) stock solution and preincubated at 37° C. for a period in the range of 0-60 min. The reaction was initiated by the addition of the enzyme. The reaction samples were incubated for a period in the range of 0-60 min. […] Samples were cooled on ice, vortexed and centrifuged. 200 μL aliquots were transferred to the 96-well plate and the absorbance was measured at 530 nm and the remaining activity was computed. The remaining activity data were plotted versus inhibitor concentration and fitted to the dose-response equation to calculate IC50.

mPAD2 = mPAD2 (Mus musculus (Mouse), UniProt Q08642); assay: Enzyme inhibition kinetics (Example 54), mPAD2; assay type: biochemical
Sequence of mPAD2 (Q08642 whole entry): as above

PAD4 [1] = biological target: T1, PAD4 (Homo sapiens (Human), UniProt Q9UM07); assay: Inhibition of PAD activity (Example 53), PAD4; conditions: for Ki: read-out: PAD4 Ki ± std error; for Ki / PAD4 Ki ± std error: Table 5; for remaining activity at 100 µM / remaining activity at 1000 µM: read-out: Remaining activity of PAD4
T1 sequence (Q9UM07 whole entry): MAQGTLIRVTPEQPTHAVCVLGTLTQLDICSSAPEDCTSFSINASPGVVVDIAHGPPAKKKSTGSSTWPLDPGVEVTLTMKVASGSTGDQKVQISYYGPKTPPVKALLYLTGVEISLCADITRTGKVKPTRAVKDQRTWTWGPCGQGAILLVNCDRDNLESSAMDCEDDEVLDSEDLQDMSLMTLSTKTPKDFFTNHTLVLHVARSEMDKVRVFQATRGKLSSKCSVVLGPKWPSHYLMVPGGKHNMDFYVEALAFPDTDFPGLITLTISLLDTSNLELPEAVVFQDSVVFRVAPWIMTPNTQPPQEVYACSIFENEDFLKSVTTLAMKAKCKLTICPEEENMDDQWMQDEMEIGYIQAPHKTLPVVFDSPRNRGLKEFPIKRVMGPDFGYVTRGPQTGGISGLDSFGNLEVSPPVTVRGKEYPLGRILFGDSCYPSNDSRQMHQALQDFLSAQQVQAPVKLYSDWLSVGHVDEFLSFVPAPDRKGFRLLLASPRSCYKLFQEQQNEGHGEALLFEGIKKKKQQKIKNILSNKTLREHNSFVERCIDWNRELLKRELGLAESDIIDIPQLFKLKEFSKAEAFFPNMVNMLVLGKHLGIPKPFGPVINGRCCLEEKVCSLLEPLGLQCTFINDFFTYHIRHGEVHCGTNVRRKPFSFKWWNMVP
Procedure: as §1, §2

PAD1 [2] = biological target: T2, PAD1 (Homo sapiens (Human), UniProt Q9ULC6); assay: Inhibition of PAD activity (Example 53), PAD1; conditions: Table 5
T2 sequence (Q9ULC6 whole entry): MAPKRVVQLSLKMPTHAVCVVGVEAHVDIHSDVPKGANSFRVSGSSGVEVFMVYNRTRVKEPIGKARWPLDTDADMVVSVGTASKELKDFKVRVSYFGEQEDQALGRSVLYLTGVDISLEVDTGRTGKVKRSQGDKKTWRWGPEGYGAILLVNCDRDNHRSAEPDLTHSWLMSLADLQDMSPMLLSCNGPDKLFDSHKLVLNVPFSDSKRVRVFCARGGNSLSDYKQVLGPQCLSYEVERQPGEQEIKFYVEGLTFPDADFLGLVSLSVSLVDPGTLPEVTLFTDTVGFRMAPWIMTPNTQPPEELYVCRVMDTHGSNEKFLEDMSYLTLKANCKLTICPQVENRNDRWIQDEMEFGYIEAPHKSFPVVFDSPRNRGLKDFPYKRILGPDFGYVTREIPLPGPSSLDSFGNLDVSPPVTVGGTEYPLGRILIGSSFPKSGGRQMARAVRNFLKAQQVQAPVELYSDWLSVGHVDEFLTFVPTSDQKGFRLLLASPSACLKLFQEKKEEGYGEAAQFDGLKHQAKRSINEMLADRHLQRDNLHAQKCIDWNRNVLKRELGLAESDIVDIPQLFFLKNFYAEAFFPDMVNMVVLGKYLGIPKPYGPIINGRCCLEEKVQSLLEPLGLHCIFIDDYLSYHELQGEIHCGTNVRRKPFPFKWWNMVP
Procedure: as §1, §2

PAD1 [3] = biological target: T2, PAD1; assay: Enzyme inhibition kinetics (Example 54), hPAD1; assay type: biochemical
PAD4 [4] = biological target: T1, PAD4; assay: Enzyme inhibition kinetics (Example 54), hPAD4; assay type: biochemical
[5] = read-out: PAD2 Ki ± std error, Table 5
[6] = read-out: PAD2 inhibition constant Ki ± Std Error, Table 1

Row | Structure (SMILES) | Ki (PAD2; [5]) [µM] | remaining activity at 100 µM (PAD2) [%] | remaining activity at 1000 µM (PAD2) [%] | remaining activity at 100 µM (PAD4 [1]) [%] | remaining activity at 1000 µM (PAD4 [1]) [%] | PAD4 Ki ± std error (PAD4 [1]) | other results
1 | CC(C)NC(=O)[C@H](CCn1cnc(CC#N)c1)NC(=O)c1ccco1 [KP-288, (S)—N-(4-(4-(Cyanomethyl)-1[H]-imidazol-1-yl)-1-(isopropylamino)-1-oxobutan-2-yl)furan-2-carboxamide] | 176 ± 62 | – | – | – | – | – | IC50 (CHO cells): > 2000 µM; Ki (mPAD2; Table 6): 1000 ± 876 µM; Selectivity ratio of inhibition, mPAD2 (PAD1) (mPAD2; mPAD2 versus PAD1): 0.4; Selectivity ratio of inhibition, mPAD2 (PAD4) (mPAD2; mPAD2 versus PAD4): 0.6; Ki (PAD4 [1]): 591 ± 77 µM; Ki (PAD1 [2]; read-out: PAD1 Ki ± std error): 914 ± 59 µM; inhibitor efficacy towards hPAD1 in comparison to other isozymes (PAD1 [3]): at least 3 fold; Ki (PAD1 [3]; Table 6): 353 ± 23 µM; Selectivity ratio of inhibition, hPAD1 (PAD2) (PAD1 [3]; hPAD1 versus PAD2, ratios greater than 2-fold suggest selectivity): 2.8; Selectivity ratio of inhibition, hPAD1 (PAD4) (PAD1 [3]; hPAD1 versus PAD4): 1.6; Ki (PAD4 [4]; Table 6): 591 ± 77 µM; Selectivity ratio of inhibition, hPAD4 (PAD1) (PAD4 [4]; hPAD4 versus PAD1): 0.6
2 | COC(=O)[C@H](CN1CCNCC1)NC(=O)C1CCCCC1 [KP-224] | – | – | – | – | – | – | Ki (PAD2; [6]): 21.3 ± 3.4 µM
3 | O=C(N[C@@H](CC(=O)N1CCNCC1)C(=O)Nc1ccccc1)c1ccco1 [KP-230] | – | 55.1 ± 0.5 | 33.5 ± 0.4 | 96.9 ± 7.6 | 82.4 ± 1.7 | – | –
4 | O=C(N[C@@H](CN1CCNCC1)C(=O)NCc1ccccc1)c1ccco1 [KP-227, (S)—N-(1-(Benzylamino)-1-oxo-3-(piperazin-1-yl)propan-2-yl)furan-2-carboxamide] | – | 63.7 ± 0.6 | 68.2 ± 2.3 | 100 ± 1.3 | 82.2 ± 2.4 | – | –
5 | O=C(N[C@@H](CCO)C(=O)Nc1ccccc1)OCc1ccccc1 [KP-231] | – | 44.4 ± 0.5 | 45.5 ± 1.1 | 100 ± 4.6 | 82.3 ± 3.7 | – | –
6 | O=C(N[C@@H](Cn1ccnc1)C(=O)OCc1ccccc1)c1ccco1 [KP-300] | 739 ± 339 | – | – | – | – | – | Ki (PAD4 [1]): 1070 ± 427 µM; PAD1 Ki ± std error (PAD1 [2]): No inhibition up to 10 mM
7 | COC(=O)[C@H](CCN1CCNCC1)NC(=O)c1ccco1 [KP-226, (S)-Methyl 2-(furan-2-carboxamido)-4-(piperazin-1-yl)butanoate] | 286 ± 27 | – | – | – | – | – | Ki (PAD2; [6]): 19.7 ± 2 µM
8 | CC(C)(C)OC(=O)N[C@@H](CN=[N+]=[N-])C(=O)NCc1ccccc1 [KP-306] | – | – | – | – | – | No inhibition up to 10 mM | PAD2 Ki ± std error (PAD2; Table 5): No inhibition up to 10 mM; PAD1 Ki ± std error (PAD1 [2]): No inhibition up to 10 mM

More lines, main results first:

Row | Ki (PAD2; [5]) [µM] | remaining activity at 100 µM (PAD2) [%] | remaining activity at 1000 µM (PAD2) [%] | remaining activity at 100 µM (PAD4 [1]) [%] | remaining activity at 1000 µM (PAD4 [1]) [%] | PAD4 Ki ± std error (PAD4 [1]) | Structure (SMILES) | other results
9 | – | 86.6 ± 3 | 70.8 ± 1.7 | 78.7 ± 9.5 | 62.2 ± 2.7 | – | COC(=O)[C@H](CN1CCNCC1)NC(=O)c1ccco1 [KP-225, (S)-Methyl 2-(furan-2-carboxamido)-3-(piperazin-1-yl)propanoate] | –
10 | – | – | – | – | – | No inhibition up to 10 mM | CC(C)NC(=O)[C@H](CN1CCN(C)CC1)NC(=O)N1CCOCC1 [KP-291] | PAD2 Ki ± std error (PAD2; Table 5): No inhibition up to 10 mM; PAD1 Ki ± std error (PAD1 [2]): No inhibition up to 10 mM
11 | – | 54 ± 2.7 | 63.3 ± 2 | 100 ± 5.5 | 100 ± 2.6 | – | O=C(Nc1ccccc1)[C@H](CC(=O)N1CCNCC1)NC(=O)N1CCOCC1 [KP-229] | –
12 | – | – | – | – | – | No inhibition up to 10 mM | CC(C)NC(=O)[C@H](CN1CCN(C)CC1)NC(=O)N1CCCCC1 [KP-290] | –
13 | 5300 ± 7830 | – | – | – | – | No inhibition up to 10 mM | O=C(NCc1ccccc1)[C@H](Cn1ccnc1)NC(=O)N1CCCCC1 [KP-304] | –
